Columns and labels:
[1] = target: Sodium-dependent serotonin transporter (Homo sapiens, UniProt P31645)
[2] = target: Gamma-aminobutyric acid receptor subunit alpha-1/alpha-2/beta-2/gamma-2 (Homo sapiens, UniProt P14867+P18507+P47869+P47870); format: functional, cell-based
D(1A) dopamine receptor = D(1A) dopamine receptor (Homo sapiens, UniProt P21728)
[3] = target: T1, Endothelin receptor type B (Homo sapiens, UniProt P24530)
T1 sequence (P24530 whole entry): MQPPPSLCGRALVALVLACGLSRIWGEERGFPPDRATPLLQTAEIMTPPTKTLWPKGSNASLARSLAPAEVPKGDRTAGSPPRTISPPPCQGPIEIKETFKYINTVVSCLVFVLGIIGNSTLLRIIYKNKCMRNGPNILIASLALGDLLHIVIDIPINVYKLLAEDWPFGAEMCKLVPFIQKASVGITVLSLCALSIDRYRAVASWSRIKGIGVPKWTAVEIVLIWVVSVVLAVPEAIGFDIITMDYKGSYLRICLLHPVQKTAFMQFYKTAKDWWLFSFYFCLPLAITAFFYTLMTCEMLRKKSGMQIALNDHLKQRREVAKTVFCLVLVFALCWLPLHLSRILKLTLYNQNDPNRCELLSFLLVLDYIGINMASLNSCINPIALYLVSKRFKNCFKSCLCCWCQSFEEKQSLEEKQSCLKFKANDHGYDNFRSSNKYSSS

[4] = target: T2, Neuropeptide Y receptor type 2 (Homo sapiens, UniProt P49146)
T2 sequence (P49146 whole entry): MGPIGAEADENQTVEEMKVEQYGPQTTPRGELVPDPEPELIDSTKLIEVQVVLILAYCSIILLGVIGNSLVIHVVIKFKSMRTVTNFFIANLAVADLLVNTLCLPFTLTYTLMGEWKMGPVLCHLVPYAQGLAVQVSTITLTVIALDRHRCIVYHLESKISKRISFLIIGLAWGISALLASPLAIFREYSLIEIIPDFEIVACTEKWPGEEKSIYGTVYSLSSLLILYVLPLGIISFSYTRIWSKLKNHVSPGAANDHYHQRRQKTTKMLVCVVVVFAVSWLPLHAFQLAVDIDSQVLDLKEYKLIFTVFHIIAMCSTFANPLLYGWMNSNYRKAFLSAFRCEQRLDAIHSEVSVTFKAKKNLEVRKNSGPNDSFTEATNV

[5] = target: Voltage-dependent N-type calcium channel subunit alpha-1B (Rattus norvegicus, UniProt Q02294); format: functional
Progesterone receptor = target: T3, Progesterone receptor (Homo sapiens, UniProt P06401)
T3 sequence (P06401 whole entry): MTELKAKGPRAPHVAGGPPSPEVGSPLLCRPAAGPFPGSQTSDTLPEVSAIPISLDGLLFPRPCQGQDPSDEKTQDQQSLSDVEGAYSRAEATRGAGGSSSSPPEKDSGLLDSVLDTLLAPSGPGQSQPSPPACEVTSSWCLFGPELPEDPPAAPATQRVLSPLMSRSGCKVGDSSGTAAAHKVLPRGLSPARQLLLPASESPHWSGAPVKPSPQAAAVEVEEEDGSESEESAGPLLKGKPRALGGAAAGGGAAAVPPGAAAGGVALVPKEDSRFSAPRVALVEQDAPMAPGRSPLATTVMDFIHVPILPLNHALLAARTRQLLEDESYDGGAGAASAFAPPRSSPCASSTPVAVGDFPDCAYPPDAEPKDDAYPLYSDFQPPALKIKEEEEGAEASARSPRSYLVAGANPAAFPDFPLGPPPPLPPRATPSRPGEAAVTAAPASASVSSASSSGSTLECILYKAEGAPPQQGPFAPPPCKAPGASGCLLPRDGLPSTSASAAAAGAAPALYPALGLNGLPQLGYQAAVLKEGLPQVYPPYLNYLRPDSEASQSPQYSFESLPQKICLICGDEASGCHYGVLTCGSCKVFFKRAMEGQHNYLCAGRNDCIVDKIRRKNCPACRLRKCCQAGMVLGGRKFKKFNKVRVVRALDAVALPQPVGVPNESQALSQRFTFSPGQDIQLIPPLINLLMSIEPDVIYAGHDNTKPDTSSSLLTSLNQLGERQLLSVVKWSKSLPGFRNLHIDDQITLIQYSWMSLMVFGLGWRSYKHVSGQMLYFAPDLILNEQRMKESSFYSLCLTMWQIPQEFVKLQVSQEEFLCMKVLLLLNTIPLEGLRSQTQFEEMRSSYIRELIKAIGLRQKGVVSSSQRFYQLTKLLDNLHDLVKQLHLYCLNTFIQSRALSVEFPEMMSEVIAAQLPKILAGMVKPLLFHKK

[6] = target: Beta-3 adrenergic receptor (Homo sapiens, UniProt P13945)
Sequence of Beta-3 adrenergic receptor (P13945 whole entry): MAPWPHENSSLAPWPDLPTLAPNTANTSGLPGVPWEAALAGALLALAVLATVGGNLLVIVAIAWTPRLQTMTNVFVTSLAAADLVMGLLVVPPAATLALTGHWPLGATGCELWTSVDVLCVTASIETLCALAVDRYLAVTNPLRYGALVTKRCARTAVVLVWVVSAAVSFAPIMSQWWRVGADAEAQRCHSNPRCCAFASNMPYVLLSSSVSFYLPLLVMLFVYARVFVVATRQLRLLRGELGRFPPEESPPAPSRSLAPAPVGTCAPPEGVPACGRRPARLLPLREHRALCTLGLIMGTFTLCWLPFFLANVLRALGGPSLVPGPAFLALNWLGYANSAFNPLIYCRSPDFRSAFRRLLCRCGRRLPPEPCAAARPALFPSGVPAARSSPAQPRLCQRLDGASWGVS

[7] = target: T4, Alpha-2A adrenergic receptor (Homo sapiens, UniProt P08913)
T4 sequence (P08913 whole entry): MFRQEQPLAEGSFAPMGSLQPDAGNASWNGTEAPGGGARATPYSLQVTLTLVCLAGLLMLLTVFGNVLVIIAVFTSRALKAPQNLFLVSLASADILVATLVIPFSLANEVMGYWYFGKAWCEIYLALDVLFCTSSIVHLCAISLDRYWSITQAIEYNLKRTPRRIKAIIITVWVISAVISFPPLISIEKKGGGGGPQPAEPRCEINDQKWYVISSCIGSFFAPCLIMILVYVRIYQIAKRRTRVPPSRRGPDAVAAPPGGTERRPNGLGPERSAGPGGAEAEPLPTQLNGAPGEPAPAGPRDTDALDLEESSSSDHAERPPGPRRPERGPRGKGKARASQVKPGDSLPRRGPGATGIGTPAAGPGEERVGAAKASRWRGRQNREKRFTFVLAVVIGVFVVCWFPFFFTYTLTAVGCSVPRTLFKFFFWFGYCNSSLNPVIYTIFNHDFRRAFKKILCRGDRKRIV

Substance-P receptor = Substance-P receptor (Homo sapiens, UniProt P25103)
Sequence of Substance-P receptor (P25103 whole entry): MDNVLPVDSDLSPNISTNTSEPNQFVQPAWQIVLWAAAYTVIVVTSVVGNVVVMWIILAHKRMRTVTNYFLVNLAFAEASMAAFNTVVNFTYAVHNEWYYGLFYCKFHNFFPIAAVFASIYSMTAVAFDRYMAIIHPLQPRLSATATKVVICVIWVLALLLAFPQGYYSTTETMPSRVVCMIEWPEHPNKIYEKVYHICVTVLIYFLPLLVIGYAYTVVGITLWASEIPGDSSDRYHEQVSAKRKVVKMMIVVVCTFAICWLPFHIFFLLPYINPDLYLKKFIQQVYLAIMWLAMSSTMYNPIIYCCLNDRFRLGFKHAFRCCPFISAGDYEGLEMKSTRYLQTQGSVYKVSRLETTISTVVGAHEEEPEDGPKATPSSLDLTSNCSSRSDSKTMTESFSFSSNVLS
Further: assay procedure not described here.

Sequence of Sodium-dependent serotonin transporter (P31645 whole entry): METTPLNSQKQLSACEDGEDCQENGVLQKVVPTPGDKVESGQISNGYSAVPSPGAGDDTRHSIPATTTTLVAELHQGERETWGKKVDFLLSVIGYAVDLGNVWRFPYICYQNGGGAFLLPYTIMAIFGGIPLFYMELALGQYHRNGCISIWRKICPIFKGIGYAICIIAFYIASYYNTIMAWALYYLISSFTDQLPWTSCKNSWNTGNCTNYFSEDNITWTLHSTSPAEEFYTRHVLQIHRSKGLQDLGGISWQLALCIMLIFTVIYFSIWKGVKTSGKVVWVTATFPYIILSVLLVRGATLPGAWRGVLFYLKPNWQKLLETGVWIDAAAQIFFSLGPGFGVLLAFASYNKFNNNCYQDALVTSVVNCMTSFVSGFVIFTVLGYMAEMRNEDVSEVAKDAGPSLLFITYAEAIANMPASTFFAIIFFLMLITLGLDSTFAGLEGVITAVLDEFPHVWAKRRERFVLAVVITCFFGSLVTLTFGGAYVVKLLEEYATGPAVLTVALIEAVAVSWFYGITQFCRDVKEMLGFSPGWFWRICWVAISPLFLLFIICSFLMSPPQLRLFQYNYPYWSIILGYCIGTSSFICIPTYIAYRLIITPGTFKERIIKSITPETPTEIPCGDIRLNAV
Sequence of Gamma-aminobutyric acid receptor subunit alpha-1/alpha-2/beta-2/gamma-2 (P14867 whole entry): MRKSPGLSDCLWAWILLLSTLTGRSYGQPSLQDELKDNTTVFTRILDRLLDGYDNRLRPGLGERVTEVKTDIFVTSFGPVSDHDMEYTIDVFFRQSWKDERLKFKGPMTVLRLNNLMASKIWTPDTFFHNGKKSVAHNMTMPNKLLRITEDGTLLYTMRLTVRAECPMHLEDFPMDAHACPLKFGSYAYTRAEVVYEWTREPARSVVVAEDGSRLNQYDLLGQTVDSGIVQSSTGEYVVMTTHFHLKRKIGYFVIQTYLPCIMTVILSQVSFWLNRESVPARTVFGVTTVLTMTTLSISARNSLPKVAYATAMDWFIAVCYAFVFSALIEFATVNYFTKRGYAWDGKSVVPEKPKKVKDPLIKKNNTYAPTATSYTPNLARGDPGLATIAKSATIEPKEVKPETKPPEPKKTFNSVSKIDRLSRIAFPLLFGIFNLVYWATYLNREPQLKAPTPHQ
Sequence of Gamma-aminobutyric acid receptor subunit alpha-1/alpha-2/beta-2/gamma-2 (P47870 whole entry): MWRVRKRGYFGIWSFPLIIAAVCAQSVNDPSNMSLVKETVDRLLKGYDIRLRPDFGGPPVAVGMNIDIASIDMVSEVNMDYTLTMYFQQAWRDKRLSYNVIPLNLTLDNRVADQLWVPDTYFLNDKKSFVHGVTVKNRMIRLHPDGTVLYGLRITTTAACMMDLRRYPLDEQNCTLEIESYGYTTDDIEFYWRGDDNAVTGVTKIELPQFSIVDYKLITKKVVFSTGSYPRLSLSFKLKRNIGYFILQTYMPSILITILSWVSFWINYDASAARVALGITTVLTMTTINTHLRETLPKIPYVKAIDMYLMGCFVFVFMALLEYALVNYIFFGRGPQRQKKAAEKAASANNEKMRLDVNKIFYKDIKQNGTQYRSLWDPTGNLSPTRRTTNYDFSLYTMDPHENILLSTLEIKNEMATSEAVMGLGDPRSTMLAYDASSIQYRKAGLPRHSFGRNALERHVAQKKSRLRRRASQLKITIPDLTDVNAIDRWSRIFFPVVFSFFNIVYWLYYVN
Sequence of Gamma-aminobutyric acid receptor subunit alpha-1/alpha-2/beta-2/gamma-2 (P18507 whole entry): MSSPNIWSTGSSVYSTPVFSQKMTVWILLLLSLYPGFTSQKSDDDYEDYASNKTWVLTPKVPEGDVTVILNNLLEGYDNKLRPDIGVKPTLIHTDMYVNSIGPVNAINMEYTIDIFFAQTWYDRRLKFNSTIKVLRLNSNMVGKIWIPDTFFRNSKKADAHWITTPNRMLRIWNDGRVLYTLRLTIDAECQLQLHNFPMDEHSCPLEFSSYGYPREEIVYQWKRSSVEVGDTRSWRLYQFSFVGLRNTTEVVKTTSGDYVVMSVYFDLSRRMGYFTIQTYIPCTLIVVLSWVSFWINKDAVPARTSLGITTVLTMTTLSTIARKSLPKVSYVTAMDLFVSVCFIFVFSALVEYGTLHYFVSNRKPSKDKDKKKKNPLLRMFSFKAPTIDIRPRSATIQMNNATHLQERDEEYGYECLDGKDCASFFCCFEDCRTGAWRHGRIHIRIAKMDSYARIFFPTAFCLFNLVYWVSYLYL
Sequence of Gamma-aminobutyric acid receptor subunit alpha-1/alpha-2/beta-2/gamma-2 (P47869 whole entry): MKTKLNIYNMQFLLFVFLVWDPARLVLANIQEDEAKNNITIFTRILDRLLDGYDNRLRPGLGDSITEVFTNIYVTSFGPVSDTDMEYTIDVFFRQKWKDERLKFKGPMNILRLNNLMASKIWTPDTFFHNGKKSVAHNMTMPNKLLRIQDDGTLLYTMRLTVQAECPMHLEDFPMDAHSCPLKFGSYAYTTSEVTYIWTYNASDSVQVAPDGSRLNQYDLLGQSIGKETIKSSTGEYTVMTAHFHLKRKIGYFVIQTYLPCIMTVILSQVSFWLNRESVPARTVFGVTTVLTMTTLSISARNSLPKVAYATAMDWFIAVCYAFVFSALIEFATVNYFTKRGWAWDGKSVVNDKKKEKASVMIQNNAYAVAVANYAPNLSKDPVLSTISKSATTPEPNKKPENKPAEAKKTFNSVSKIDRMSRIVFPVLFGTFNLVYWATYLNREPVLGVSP
Sequence of D(1A) dopamine receptor (P21728 whole entry): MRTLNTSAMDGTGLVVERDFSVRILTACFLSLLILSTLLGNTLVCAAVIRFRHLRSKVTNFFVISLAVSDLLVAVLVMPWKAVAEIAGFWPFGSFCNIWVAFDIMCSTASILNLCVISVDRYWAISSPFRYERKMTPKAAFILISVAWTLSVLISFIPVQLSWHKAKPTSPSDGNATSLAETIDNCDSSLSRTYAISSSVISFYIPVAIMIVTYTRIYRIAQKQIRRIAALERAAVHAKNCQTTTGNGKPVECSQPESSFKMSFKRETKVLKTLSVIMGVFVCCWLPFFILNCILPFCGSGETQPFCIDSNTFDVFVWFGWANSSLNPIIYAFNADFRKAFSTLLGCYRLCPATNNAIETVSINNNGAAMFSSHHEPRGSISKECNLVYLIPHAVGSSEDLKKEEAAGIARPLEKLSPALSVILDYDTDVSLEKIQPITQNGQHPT

| SMILES | AC50 [1] | AC50 [2] | AC50 [3] | AC50 [4] | AC50 [5] | AC50 (Progesterone receptor) | AC50 [6] | further results |
| --- | --- | --- | --- | --- | --- | --- | --- | --- |
| CC[C@@H](C(N)=O)N1CCCC1=O | > 30 µM | > 30 µM |  |  |  |  |  |  |
| CCC(CC)(CC(=O)Nc1cccc(/C=C/c2nc(C3CCC3)cs2)c1)C(=O)O | > 30 µM |  |  |  |  |  |  |  |
| Nc1ccncc1N [AMIFAMPRIDINE] |  |  |  |  |  |  |  | AC50 (D(1A) dopamine receptor): > 30 µM |
| C=CCN1C[C@H](C(=O)N(CCCN(C)C)C(=O)NCC)C[C@@H]2c3cccc4[nH]cc(c34)C[C@H]21 [CABERGOLINE] | 23.4 µM | > 30 µM |  |  |  |  |  |  |
| NC1CCN(c2c(F)cc3c(=O)c(C(=O)O)cn(C4CC4)c3c2Cl)C1 (stereo unspecified) [CLINAFLOXACIN] |  | > 300 µM |  |  |  |  |  |  |
| CN1CCN(C2=Nc3ccccc3Sc3ccc(Cl)cc32)CC1 [CLOTHIAPINE] |  | > 10 µM |  |  |  |  |  |  |
| CN(C)CCC=C1c2ccccc2C=Cc2ccccc21 [CYCLOBENZAPRINE] |  |  | > 30 µM | > 30 µM | > 10 µM | > 30 µM | > 30 µM |  |
| CCOc1ccc(Cc2cc([C@@H]3O[C@H](CO)[C@@H](O)[C@H](O)[C@H]3O)ccc2Cl)cc1 [DAPAGLIFLOZIN] |  |  |  |  | > 10 µM | > 30 µM | > 30 µM | AC50 [7]: 8.66 µM |
| CC[C@H]1CN2CCc3cc(OC)c(OC)cc3[C@@H]2C[C@@H]1C[C@H]1NCCc2cc(OC)c(OC)cc21 [EMETINE] |  | > 30 µM |  |  |  |  |  | AC50 (D(1A) dopamine receptor): > 30 µM |
| COc1ccc(C(=O)Nc2ccccc2CCC2CCCCN2C)cc1 (stereo unspecified) [ENCAINIDE] | > 10 µM |  | > 30 µM | > 30 µM | > 10 µM | > 30 µM | > 30 µM | AC50 (Substance-P receptor): > 10 µM; AC50 [7]: > 10 µM |
| O=[N+]([O-])O[C@@H]1CO[C@H]2[C@@H]1OC[C@@H]2O [ISOSORBIDE MONONITRATE] | > 10 µM |  | > 30 µM | > 30 µM | > 10 µM | > 30 µM | > 30 µM | AC50 (Substance-P receptor): > 10 µM; AC50 [7]: > 10 µM |
| Cc1cc(C)c(NC(=O)CN(CC(=O)O)CC(=O)O)c(C)c1Br [MEBROFENIN] |  | > 30 µM |  |  |  |  |  | AC50 (D(1A) dopamine receptor): > 30 µM |
| COc1ccccc1N1CCN(CC(O)COc2cccc3ccccc23)CC1 (stereo unspecified) [NAFTOPIDIL] |  |  |  |  |  |  |  | AC50 (D(1A) dopamine receptor): > 30 µM |
| COc1cc2nc(N3CCN(C(=O)c4ccco4)CC3)nc(N)c2cc1OC [PRAZOSIN] |  |  | > 30 µM | > 30 µM | > 10 µM | > 30 µM | > 30 µM | AC50 (Substance-P receptor): > 10 µM |
| O=[N+]([O-])c1cn2c(n1)OC[C@@H](OCc1ccc(OC(F)(F)F)cc1)C2 [PRETOMANID] | > 10 µM |  | > 30 µM | > 30 µM | > 10 µM |  | > 30 µM | AC50 (Substance-P receptor): > 10 µM; AC50 [7]: > 10 µM |
| Cc1oc(=O)oc1CN1CCN(c2cc3c(cc2F)c(=O)c(C(=O)O)c2n3C(C)S2)CC1 (stereo unspecified) [PRULIFLOXACIN] |  | > 30 µM |  |  |  |  |  | AC50 (D(1A) dopamine receptor): > 30 µM |
| CCCCCNC(=N)N/N=C/c1c[nH]c2ccc(OC)cc12 [TEGASEROD] | 3.47 µM |  | > 30 µM | > 30 µM |  | > 30 µM | 6.08 µM | AC50 (Substance-P receptor): > 10 µM; AC50 [7]: 0.31 µM |
| COC1=C(OC)C(=O)C(C/C=C(\C)CC/C=C(\C)CC/C=C(\C)CC/C=C(\C)CC/C=C(\C)CC/C=C(\C)CC/C=C(\C)CC/C=C(\C)CC/C=C(\C)CCC=C(C)C)=C(C)C1=O [UBIDECARENONE] |  | > 30 µM |  |  |  |  |  |  |
| C=CCCCCCCCCC(=O)O [UNDECYLENIC ACID] |  |  |  |  |  |  |  | AC50 (D(1A) dopamine receptor): > 30 µM |
| CCOc1ccccc1OCC1CNCCO1 (stereo unspecified) [VILOXAZINE] |  |  | > 30 µM | > 30 µM | > 10 µM | > 30 µM | > 30 µM | AC50 (Substance-P receptor): > 10 µM; AC50 [7]: > 10 µM |
| CN(C)CCc1c[nH]c2ccc(C[C@H]3COC(=O)N3)cc12 [ZOLMITRIPTAN] | > 30 µM | > 30 µM |  |  |  |  |  |  |
